Where two headings read alike, the source gives them in different places. Marks after values point to notes of the source that are not given here.
Assays:
[1] = Octanol-buffer distribution (log D7.4); type: physicochemical; conditions: for logD / logD at 1 min / logD at 10 min / logD at 30 min: 1-octanol/PBS; for logD: pH 7.4, pooled mixing times 1, 10, 30 min; for logD at 1 min: mixing time 1 min; for logD at 1 min / logD at 10 min / logD at 30 min: octanol/PBS pH 7.4; for logD at 10 min: mixing time 10 min; for logD at 30 min: mixing time 30 min
Protocol: Phosphate-buffered saline (PBS, pH 7.4) and 1-octanol were mutually saturated by vigorous stirring at room temperature for 18 h, and then separated. Drug solutions of 0.1 mg mL^-1 in PBS were prepared, and 500 μL aliquots were added to 1.5 mL micro-centrifuge tubes with an equal volume of 1-octanol. Three samples were vortex-mixed for 1, 10 and 30 minutes respectively, then centrifuged at room temperature (12,000 rpm for 15 minutes). Aliquots of the upper octanol layer were removed by pipette. A disposable syringe was inserted while bubbling air through the upper layer, an aliquot of the lower PBS layer withdrawn, and the needle removed before transferring. Samples were stored in glass sample vials at −20 °C until analysis by LC-MS-MS.
Drug concentrations (ng mL^-1) refer to the free base, and were measured by liquid chromatography-tandem mass spectrometry (LC-MS-MS) as described previously. Briefly, samples were shaken with 3 volumes of methanol and centrifuged at 3000 g. Aliquots of the supernatants were diluted with 5 volumes of water containing an appropriate internal standard. Extracts from in vitro and in vivo experiments were analyzed by multiple reaction monitoring on an API3000 or API4000 LC-MS-MS system with electrospray ion source, controlled and analyzed using the Analyst software package (Applied Biosystems, Foster City, CA). Chromatography was conducted on a Sprite Armor C18 analytical column (20 × 2.1 mm, 10 μm particle size, Analytical Sales and Products, Pompton Plains, NJ) with a 0.5 μm PEEK guard filter. Compounds were eluted with a gradient from 2% to 95% acetonitrile in water, both containing 0.1% formic acid. Compounds were detected in positive ion mode, tuned to the mass transition with the largest intensity. Analyte concentrations were determined by comparison of analyte:internal standard peak area ratios to those of standards prepared in the appropriate matrices.

[2] = Brain homogenate binding (unbound fraction by ultracentrifugation); type: in vitro ADME
Protocol: Unbound fractions in brain homogenate and plasma were determined by ultracentrifugation as described previously. Briefly, drug-spiked matrices (5 μM drug in plasma or brain homogenate) were centrifuged at 600,000 g for 5 h at 37 °C (plasma) or 5 °C (brain). Aliquots of the middle (water) layer were added to an equal volume of blank matrix and extracted with 5 volumes of acetonitrile containing internal standard. Aliquots of the original spiked matrix were mixed with an equal volume of blank matrix and 2 volumes of plasma ultrafiltrate (plasma) or phosphate-buffered saline (tissue) and extracted with 10 volumes of acetonitrile. Extracts were centrifuged and analyzed by LC-MS-MS. Fraction unbound was calculated from the ratio of concentration in the water layer to that in the original spiked matrix, corrected for dilution as described previously. Based on previous results for basic drugs, in vivo free fraction in brain was assumed to be at least 3-fold lower than the in vitro free fraction in brain homogenate.

[3] = set-up: method as in PMID 17049114; conditions: mice, i.p.; cited from earlier work
[4] = cited from earlier work
[5] = Water solubility; type: physicochemical; conditions: distilled water, thermodynamic from solid, 25 °C, salt tested
Protocol: Distilled water was added slowly by microsyringe to 10–15 mg of drug in a glass vial, swirling until no solid was visible.

[6] = tested on: κ opioid receptor; set-up: method as in PMID 15464069; conditions: intragastric administration; cited from earlier work
[7] = tested on: μ opioid receptor; set-up: method as in PMID 1326932; conditions: after subcutaneous administration; cited from earlier work
[8] = set-up: method as in earlier work; conditions: preliminary reports; cited from earlier work
[9] = 5 μM drug, mean, n = 3, corrected for dilution, read-out: Fraction unbound, Brain homogenate
[10] = Brain homogenate, read-out: % free (uncorrected)

SMILES | logD [1] | logD at 1 min [1] | logD at 10 min [1] | logD at 30 min [1] | Log10D7.4 octanol:buffer (pH 7.4) ([1]; mean, n = 3) | fraction unbound at 5 h, 5 μM [2, 9] | fraction unbound at 5 h, 5 μM [2, 10] | Sedation, duration [3] | Sedation, time to maximum [3] | Water solubility ([4]; 25 °C, ref Tocris product information sheet) | Water solubility ([4]; ref Tocris product information sheet (Table 1)) | solubility [5] | fraction unbound at 5 h, 5 μM ([2]; assumed at least 3-fold lower than in homogenate, read-out: Fu,brain (in vivo est.)) | Delay in onset of κ antagonism [6] | fraction unbound at 5 h, 5 μM ([2]; mouse, assumed at least 3-fold lower than in homogenate, read-out: Fu,brain (in vivo est.)) | μ antagonism, duration [7] | μ antagonism, time of peak [7] | Detection in mouse brain after administration [8]
N=C(N)Nc1ccc2[nH]c3c(c2c1)C[C@@]1(O)[C@H]2Cc4ccc(O)c5c4[C@@]1(CCN2CC1CC1)[C@H]3O5 [GNTI, 5’-guanidinonaltrindole] | -0.08 | -0.07 | -0.11 | -0.0527 | -0.1 | 0.07 | 0.19 | less than 3 hours | ≤ 20 min | >100^a mmol L^-1 | at least 100 mM | – | – | – | – | – | – | –
CC(C)[C@@H](CN1CC[C@@](C)(c2cccc(O)c2)[C@@H](C)C1)NC(=O)[C@H]1Cc2ccc(O)cc2CN1 [JDTic, (3R)-7-Hydroxy-N-((1S)-1-{[(3R,4R)-4-(3-hydroxyphenyl)-3,4-dimethyl-1-piperidinyl]methyl}-2-methylpropyl)-1,2,3,4-tetrahydro-3-isoquinolinecarboxamide] | 1.84 | 1.84 | 1.9 | 1.77 | – | 0.07 | 0.18 | – | – | – | – | > 45 mM | < 0.0233 | greater than 6 hours | – | – | – | –
Oc1ccc2c3c1O[C@H]1c4[nH]c5c(c4C[C@@]4(O)[C@@H](C2)N(CC2CC2)CC[C@]314)C[C@@]1(O)[C@H]2Cc3ccc(O)c4c3[C@@]1(CCN2CC1CC1)[C@H]5O4 [nor-BNI, norbinaltorphimine] | 1.53 | 1.43 | 1.59 | 1.57 | – | 0.12 | 0.28 | – | – | – | – | > 45 mM | – | – | < 0.04 | approximately 4 hours | approximately 30 minutes | up to 21 days
